{
  "source": "patent US7323456B2",
  "about": "“Carboxylic acid derivatives compounds and agents comprising the compounds as active ingredient” (Ono Pharmaceutical Co., Ltd., priority 2001, dated 2008)",
  "key": {"human PPAR α": {"molecular_target": "T1, human PPAR α (Homo sapiens, UniProt Q07869)", "T1 construct": "expressed in transfected cells; host or cells: CV-1 cells", "T1 sequence (Q07869 167-468)": "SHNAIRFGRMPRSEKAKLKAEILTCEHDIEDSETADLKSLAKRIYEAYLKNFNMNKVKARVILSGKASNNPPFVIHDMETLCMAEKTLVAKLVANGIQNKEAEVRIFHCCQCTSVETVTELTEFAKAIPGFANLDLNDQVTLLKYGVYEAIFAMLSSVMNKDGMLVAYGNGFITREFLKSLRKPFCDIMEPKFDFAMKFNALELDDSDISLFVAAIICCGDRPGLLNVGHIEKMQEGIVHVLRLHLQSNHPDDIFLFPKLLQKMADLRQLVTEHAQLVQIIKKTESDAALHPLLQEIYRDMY", "test": "Luciferase assay of PPAR α agonistic activity (Gal4-PPAR chimeric receptor, CV-1 cells)", "format": "cell-based", "conditions": "compound 10 μM, luciferase activity of carbacyclin (10 μM) defined as 1.0, 42 hours"}, "human PPAR γ": {"molecular_target": "T2, human PPAR γ (Homo sapiens, UniProt P37231)", "T2 construct": "expressed in transfected cells; host or cells: CV-1 cells", "T2 sequence (P37231 204-505)": "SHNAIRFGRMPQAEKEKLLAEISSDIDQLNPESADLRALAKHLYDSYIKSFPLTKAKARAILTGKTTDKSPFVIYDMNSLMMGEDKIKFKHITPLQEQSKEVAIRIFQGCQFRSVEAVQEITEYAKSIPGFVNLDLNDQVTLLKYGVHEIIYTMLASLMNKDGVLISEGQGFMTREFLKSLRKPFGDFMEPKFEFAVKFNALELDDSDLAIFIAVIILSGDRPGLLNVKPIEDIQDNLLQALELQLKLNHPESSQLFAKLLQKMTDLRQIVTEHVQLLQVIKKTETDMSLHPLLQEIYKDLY", "test": "Luciferase assay of PPAR γ agonistic activity (Gal4-PPAR chimeric receptor, CV-1 cells)", "format": "cell-based", "conditions": "compound 10 μM, luciferase activity of troglitazone (10 μM) defined as 1.0, 42 hours"}},
  "data": [
    {"smiles": "C=CCN(CC(=O)O)Cc1cccc(OCCc2nc(-c3ccc(N4CCCCCC4)nc3)oc2C)c1", "note": "[Example 2, 2-(N-allyl-N-(3-(2-(2-(6-(perhydroazepin-1-yl)pyridin-3-yl)-5-methyloxazol-4-yl)ethoxy)benzyl)amino)acetic acid]", "values": [
      {"measurement": "Relative Activity to a positive control compound (carbacyclin = 1)", "setting": "human PPAR α", "value": 0.9},
      {"measurement": "Relative Activity to a positive control compound (troglitazone = 1)", "setting": "human PPAR γ", "value": 11.5}
    ]}
  ]
}
